What all share (type): biochemical
Experiment [1] addresses T1, AtFBA5 (SUMO-AtFBA5) (Arabidopsis thaliana, UniProt O65581).
T1 sequence (O65581 1-358): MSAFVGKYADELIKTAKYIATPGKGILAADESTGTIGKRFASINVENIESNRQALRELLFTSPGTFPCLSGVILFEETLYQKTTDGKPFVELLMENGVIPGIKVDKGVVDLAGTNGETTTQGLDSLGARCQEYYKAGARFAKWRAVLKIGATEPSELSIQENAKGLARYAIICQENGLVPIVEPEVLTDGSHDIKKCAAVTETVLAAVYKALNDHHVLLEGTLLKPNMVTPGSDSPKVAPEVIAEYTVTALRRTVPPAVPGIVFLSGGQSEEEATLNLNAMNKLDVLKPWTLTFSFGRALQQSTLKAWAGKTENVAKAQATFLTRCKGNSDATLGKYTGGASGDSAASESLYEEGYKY
As to the kind of experiment: coupled NADH assay, activity relative to control.

Experiment [2] addresses T2, AtFBA4 (SUMO-AtFBA4) (Arabidopsis thaliana, UniProt F4KGQ0).
T2 sequence (F4KGQ0 1-393): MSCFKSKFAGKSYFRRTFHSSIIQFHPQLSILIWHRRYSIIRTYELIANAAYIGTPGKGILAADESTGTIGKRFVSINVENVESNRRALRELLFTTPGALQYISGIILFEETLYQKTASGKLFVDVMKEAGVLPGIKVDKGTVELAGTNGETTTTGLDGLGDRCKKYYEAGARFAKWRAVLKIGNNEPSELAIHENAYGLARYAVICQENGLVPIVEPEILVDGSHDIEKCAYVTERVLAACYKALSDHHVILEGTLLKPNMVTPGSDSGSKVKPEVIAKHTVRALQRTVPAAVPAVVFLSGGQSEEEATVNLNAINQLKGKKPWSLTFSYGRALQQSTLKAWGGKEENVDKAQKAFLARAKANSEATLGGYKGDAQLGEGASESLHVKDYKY
Briefly: coupled NADH assay, activity relative to control. The note with it: read-out: % residual activity at 5.0 mM.

Experiment [3] addresses T2, AtFBA4 (SUMO-AtFBA4). Briefly: coupled NADH assay at […] nm, FBP saturation curves with inhibitor.
For experiment [4], the target named is T1, AtFBA5 (SUMO-AtFBA5). Described as above.

Molecules are shown by their SMILES. Residues, ends and D or L forms follow the SMILES beside them.

We go through five compounds from article doi:10.1101/2024.03.29.587371v1 (biorxiv, 2024).

`O=P(O)(O)OP(=O)(O)O` [PPi]: the “% of control activity at 1.0 mM” value at AtFBA5 (SUMO-AtFBA5) [1] (pH 7.5, 250 µM FBP) is listed as 144 ± 10%.

For `O=C(O)C[C@H](O)C(=O)O` [Malate], on AtFBA4 (SUMO-AtFBA4) [2], the remaining activity at 5000 µM turned out to be 68 ± 12%.

Turning to `N[C@@H](Cc1ccc(O)cc1)C(=O)N[C@@H](CC(=O)O)C(=O)O` [Tyr-Asp] (H-Tyr-Asp-OH), the remaining activity at 500 µM on AtFBA5 (SUMO-AtFBA5) [1] (read-out: % residual activity at 0.50 mM) worked out at 82 ± 5%.

`O=C(O)CCC(=O)C(=O)O` [2-OG]: the remaining activity at 5000 µM at AtFBA4 (SUMO-AtFBA4) [2] amounted to 69 ± 2%.

Take `O=c1c(O)c(-c2ccc(O)cc2O)oc2cc(O)cc(O)c12` [morin, 3,5,7,2′,4′-pentahydroxyflavone]: the inhibitory constant (Ki) – broadly, the dissociation constant of the complex between target and ligand, obtained from inhibition or displacement – at AtFBA4 (SUMO-AtFBA4) [3] stood at 80 ± 10 µM; at AtFBA5 (SUMO-AtFBA5) [4], 63 ± 4 µM.
